Measurements taken from patent US10758534B2 (Vertex Pharmaceuticals Incorporated, priority 2014, dated 2020).

The molecules below were run against T1, F508del (Homo sapiens, UniProt P13569, DEL508-508) (assay: Protocol 1: membrane potential optical assay (FLIPR III, voltage sensing dye), identification of potentiator compounds). Details: Table 3, compounds of Table 1.
T1 construct: expressed in transfected cells
T1 sequence (P13569 with tags, fused parts or gaps DEL508-508): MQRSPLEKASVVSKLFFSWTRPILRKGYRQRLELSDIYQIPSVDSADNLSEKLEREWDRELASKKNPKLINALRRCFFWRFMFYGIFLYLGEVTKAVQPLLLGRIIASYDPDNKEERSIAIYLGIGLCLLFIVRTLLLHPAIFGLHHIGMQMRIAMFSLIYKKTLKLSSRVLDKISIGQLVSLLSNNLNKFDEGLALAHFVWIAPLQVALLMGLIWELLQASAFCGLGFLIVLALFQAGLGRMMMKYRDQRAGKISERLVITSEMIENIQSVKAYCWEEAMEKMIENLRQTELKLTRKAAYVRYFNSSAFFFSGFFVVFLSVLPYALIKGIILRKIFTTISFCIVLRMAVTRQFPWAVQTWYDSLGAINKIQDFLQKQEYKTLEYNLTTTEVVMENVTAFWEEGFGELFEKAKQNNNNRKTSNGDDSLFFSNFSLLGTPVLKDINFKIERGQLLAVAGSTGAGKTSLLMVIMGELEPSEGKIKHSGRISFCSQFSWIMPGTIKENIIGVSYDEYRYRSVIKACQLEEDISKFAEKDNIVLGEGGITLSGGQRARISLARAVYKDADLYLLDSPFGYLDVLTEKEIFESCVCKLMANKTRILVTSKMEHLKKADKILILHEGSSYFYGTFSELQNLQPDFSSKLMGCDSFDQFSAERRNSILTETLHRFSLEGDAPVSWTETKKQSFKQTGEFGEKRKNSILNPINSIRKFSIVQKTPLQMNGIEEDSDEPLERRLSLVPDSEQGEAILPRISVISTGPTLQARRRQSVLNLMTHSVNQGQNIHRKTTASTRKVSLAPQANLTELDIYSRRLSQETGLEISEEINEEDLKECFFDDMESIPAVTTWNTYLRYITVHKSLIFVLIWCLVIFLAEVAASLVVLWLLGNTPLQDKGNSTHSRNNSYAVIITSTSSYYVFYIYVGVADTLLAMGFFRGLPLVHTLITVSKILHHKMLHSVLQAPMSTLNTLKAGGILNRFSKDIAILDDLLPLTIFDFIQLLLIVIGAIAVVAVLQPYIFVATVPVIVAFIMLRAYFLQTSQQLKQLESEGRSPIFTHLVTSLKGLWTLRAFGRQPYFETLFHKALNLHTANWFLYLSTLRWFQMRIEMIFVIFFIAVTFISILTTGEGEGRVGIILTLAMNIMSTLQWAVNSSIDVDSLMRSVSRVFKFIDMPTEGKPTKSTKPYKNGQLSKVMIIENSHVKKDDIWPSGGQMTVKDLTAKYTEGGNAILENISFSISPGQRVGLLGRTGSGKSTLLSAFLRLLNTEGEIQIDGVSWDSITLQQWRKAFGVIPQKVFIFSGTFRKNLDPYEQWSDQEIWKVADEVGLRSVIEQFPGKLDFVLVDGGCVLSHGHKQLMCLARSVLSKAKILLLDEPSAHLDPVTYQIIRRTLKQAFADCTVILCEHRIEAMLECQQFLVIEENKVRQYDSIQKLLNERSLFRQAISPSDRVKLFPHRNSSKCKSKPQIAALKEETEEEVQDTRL
Type: cell-based
Summary of the method: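 NIH 3T3 fibroblasts stably expressing F508del were cultured at 27° C for 24 hrs for temperature correction, then treated with compounds or DMSO and loaded with a voltage-sensing redistribution dye. Forskolin added with a Cl⁻ gradient activated the channel; membrane-potential fluorescence on FLIPR III reported increased gating.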
With `CC(C)COc1cc(F)cc(-c2ccc(C(=O)NS(=O)(=O)N[C@H]3CCNC3)c(N3C[C@@H](C)CC3(C)C)n2)c1` [Compound 1935, 6-(3-fluoro-5-isobutoxy-phenyl)-N—[[(3S)-pyrrolidin-3-yl]sulfamoyl]-2-[(4S)-2,2,4-trimethylpyrrolidin-1-yl]pyridine-3-carboxamide] the EC30 was “+++ (“+++” means <3 uM)”.
With `COc1cc(-c2cc(F)cc(OCC(C)C)c2)nc(N2[C@H](C)CC[C@@H]2C)c1C(=O)NS(=O)(=O)c1cccc(N)n1` [Compound 1254, N-[(6-amino-2-pyridyl)sulfonyl]-2-[(2S,5R)-2,5-dimethylpyrrolidin-1-yl]-6-(3-fluoro-5-isobutoxy-phenyl)-4-methoxy-pyridine-3-carboxamide] the EC30 was “+++ (“+++” means <3 uM)”.
With `CCOc1cccc2c1CN(Cc1c(C)cc(C)cc1C)C2(C)C(=O)NS(=O)(=O)c1ccccc1N` (stereo not shown) [Compound 1457, N-(2-aminophenyl)sulfonyl-4-ethoxy-1-methyl-2-[(2,4,6-trimethylphenyl)methyl]isoindoline-1-carboxamide] the EC30 was “+++ (“+++” means <3 uM)”.
`CC(C)(C)c1ccc(C(=O)NS(=O)(=O)c2cccc(N)n2)c(N2CC3CC(C3)C2)n1` [Compound 1401, N-[(6-amino-2-pyridyl)sulfonyl]-2-(3-azabicyclo[3.1.1]heptan-3-yl)-6-tert-butyl-pyridine-3-carboxamide] was tested, and the EC30 was “+++ (“+++” means <3 uM)”.
With `CCN(CCOC)c1cccc(S(=O)(=O)NC(=O)c2cccnc2N2CC(C)CC2(C)C)n1` (stereo not shown) [Compound 1870, N—[[6-[ethyl(2-methoxyethyl)amino]-2-pyridyl]sulfonyl]-2-(2,2,4-trimethylpyrrolidin-1-yl)pyridine-3-carboxamide] the EC30 was “++ (“++” means between 3 uM and 10 uM)”.
In the case of `C[C@@H]1CN(c2nc(-c3cccc(CO)c3)ccc2C(=O)NS(=O)(=O)c2cccnc2N)C(C)(C)C1` [Compound 1738, N-[(2-amino-3-pyridyl)sulfonyl]-6-[3-(hydroxymethyl)phenyl]-2-[(4S)-2,2,4-trimethylpyrrolidin-1-yl]pyridine-3-carboxamide], the EC30 is reported as “+++ (“+++” means <3 uM)”.
In the case of `COc1ccccc1-c1cnc(N2CC(C)CC2(C)C)c(C(=O)NS(=O)(=O)c2cccc(N)n2)c1` (stereo not shown) [Compound 1735, N-[(6-amino-2-pyridyl)sulfonyl]-5-(2-methoxyphenyl)-2-(2,2,4-trimethylpyrrolidin-1-yl)pyridine-3-carboxamide], the EC30 is reported as “+++ (“+++” means <3 uM)”.
With `CC(C)COc1cc(F)cc(-c2ccc(C(=O)NS(=O)(=O)c3ccn[nH]3)c(N3CCC(C)C3(C)C)n2)c1` (stereo not shown) [Compound 997, 6-(3-fluoro-5-isobutoxy-phenyl)-N-(1H-pyrazol-5-ylsulfonyl)-2-(2,2,3-trimethylpyrrolidin-1-yl)pyridine-3-carboxamide] the EC30 was “++ (“++” means between 3 uM and 10 uM)”.
For `CCOc1cccc2c1CN(Cc1c(C)cc(C)cc1C)C2(C)C(=O)NS(=O)(=O)c1cnc(NC(C)=O)s1` (stereo not shown) [Compound 1555, N-(2-acetamidothiazol-5-yl)sulfonyl-4-ethoxy-1-methyl-2-[(2,4,6-trimethylphenyl)methyl]isoindoline-1-carboxamide], the EC30 was “+++ (“+++” means <3 uM)”.
For `CC(C)Oc1ccc(-c2ccc(C(=O)NS(=O)(=O)c3cccc(N)n3)c(N3CCCC3C)n2)cn1` (stereo not shown) [Compound 1271, N-[(6-amino-2-pyridyl)sulfonyl]-6-(6-isopropoxy-3-pyridyl)-2-(2-methylpyrrolidin-1-yl)pyridine-3-carboxamide], the EC30 was “+++ (“+++” means <3 uM)”.
In the case of `Cc1cc(C)c(Oc2nc(-c3cccc(F)c3F)ccc2C(=O)NS(=O)(=O)c2ccc[nH]c2=O)c(C)c1` [Compound 1296, 6-(2,3-difluorophenyl)-N-[(2-oxo-1H-pyridin-3-yl)sulfonyl]-2-(2,4,6-trimethylphenoxy)pyridine-3-carboxamide], the EC30 is reported as “+ (“+” means greater than 10 uM)”.
With `CC(Oc1nc(N2C[C@@H](C)CC2(C)C)c(C(=O)NS(=O)(=O)c2cccc(N)n2)cc1F)C1CCOCC1` (stereo partly drawn) [Compound 1891, N-[(6-amino-2-pyridyl)sulfonyl]-5-fluoro-6-(1-tetrahydropyran-4-ylethoxy)-2-[(4S)-2,2,4-trimethylpyrrolidin-1-yl]pyridine-3-carboxamide] the EC30 was “+++ (“+++” means <3 uM)”.
With `CC(C)Oc1ccc(-c2ccc(C(=O)NS(=O)(=O)c3cccc(N)n3)c(N3CC[C@H](C)C3)n2)cn1` [Compound 1081, N-[(6-amino-2-pyridyl)sulfonyl]-6-(6-isopropoxy-3-pyridyl)-2-[(3S)-3-methylpyrrolidin-1-yl]pyridine-3-carboxamide] the EC30 was “++ (“++” means between 3 uM and 10 uM)”.
With `C=C(C)c1ccc(C(=O)NS(=O)(=O)c2cccc(N)n2)c(Oc2c(C)cc(C)cc2C)n1` [Compound 1211, N-[(6-amino-2-pyridyl)sulfonyl]-6-isopropenyl-2-(2,4,6-trimethylphenoxy)pyridine-3-carboxamide] the EC30 was “++ (“++” means between 3 uM and 10 uM)”.
`C[C@@H]1CN(c2nc(-c3ccccc3CO)ccc2C(=O)NS(=O)(=O)c2cccnc2N)C(C)(C)C1` [Compound 1706, N-[(2-amino-3-pyridyl)sulfonyl]-6-[2-(hydroxymethyl)phenyl]-2-[(4S)-2,2,4-trimethylpyrrolidin-1-yl]pyridine-3-carboxamide] was tested, and the EC30 was “++ (“++” means between 3 uM and 10 uM)”.
`COC1CCCN(S(=O)(=O)NC(=O)c2ccc(-c3cc(F)cc(OCC(C)C)c3)nc2N2C[C@@H](C)CC2(C)C)C1` (stereo partly drawn) [Compound 1545, 6-(3-fluoro-5-isobutoxy-phenyl)-N-[(3-methoxy-1-piperidyl)sulfonyl]-2-[(4S)-2,2,4-trimethylpyrrolidin-1-yl]pyridine-3-carboxamide] was tested, and the EC30 was “+++ (“+++” means <3 uM)”.
For `CCOc1cccc2c1CN(Cc1ccc(F)cc1)C2(C)C(=O)NS(=O)(=O)c1cccc(F)n1` (stereo not shown) [Compound 1583, 4-ethoxy-2-[(4-fluorophenyl)methyl]-N-[(6-fluoro-2-pyridyl)sulfonyl]-1-methyl-isoindoline-1-carboxamide], the EC30 was “++ (“++” means between 3 uM and 10 uM)”.
`COCC1CCN(c2nc(C(C)(C)C)ccc2C(=O)NS(=O)(=O)c2cccc(N)n2)CC1` [Compound 986, N-[(6-amino-2-pyridyl)sulfonyl]-6-tert-butyl-2-[4-(methoxymethyl)-1-piperidyl]pyridine-3-carboxamide] was tested, and the EC30 was “++ (“++” means between 3 uM and 10 uM)”.
With `Cc1cccc(C)c1Cn1nc(-c2ccc3c(c2)OCOC3)cc1C(=O)NS(=O)(=O)c1ccccc1` [Compound 1621, N-(benzenesulfonyl)-5-(4H-1,3-benzodioxin-7-yl)-2-[(2,6-dimethylphenyl)methyl]pyrazole-3-carboxamide] the EC30 was “+++ (“+++” means <3 uM)”.
`COc1cccc2c1CN(Cc1c(C)cc(C)cc1C)C2(C)C(=O)NS(=O)(=O)c1cccc(N)n1` (stereo not shown) [Compound 1161, N-[(6-amino-2-pyridyl)sulfonyl]-4-methoxy-1-methyl-2-[(2,4,6-trimethylphenyl)methyl]isoindoline-1-carboxamide] was tested, and the EC30 was “+++ (“+++” means <3 uM)”.
In the case of `CCOc1ccc(-c2ccc(C(=O)NS(=O)(=O)c3cccnc3N)c(N3C[C@@H](C)CC3(C)C)n2)cc1C` [Compound 1860, N-[(2-amino-3-pyridyl)sulfonyl]-6-(4-ethoxy-3-methyl-phenyl)-2-[(4S)-2,2,4-trimethylpyrrolidin-1-yl]pyridine-3-carboxamide], the EC30 is reported as “+++ (“+++” means <3 uM)”.
`CCOc1cccc2c1CN(Cc1cc(F)cc(OCC(C)C)c1)C2(C)C(=O)NS(=O)(=O)c1cccc(N)n1` (stereo not shown) [Compound 1681, N-[(6-amino-2-pyridyl)sulfonyl]-4-ethoxy-2-[(3-fluoro-5-isobutoxy-phenyl)methyl]-1-methyl-isoindoline-1-carboxamide] was tested, and the EC30 was “+++ (“+++” means <3 uM)”.
With `Cc1cc(C)c(Oc2nc(N(C)CC(C)C)c(C)cc2C(=O)NS(=O)(=O)c2cccc(N)n2)c(C)c1` [Compound 1416, N-[(6-amino-2-pyridyl)sulfonyl]-6-[isobutyl(methyl)amino]-5-methyl-2-(2,4,6-trimethylphenoxy)pyridine-3-carboxamide] the EC30 was “+++ (“+++” means <3 uM)”.
With `Cc1nc(OC(C)C)ccc1-c1ccc(C(=O)NS(=O)(=O)c2cccc(N)n2)c(N2[C@H](C)CC[C@@H]2C)n1` [Compound 1623, N-[(6-amino-2-pyridyl)sulfonyl]-2-[(2R,5S)-2,5-dimethylpyrrolidin-1-yl]-6-(6-isopropoxy-2-methyl-3-pyridyl)pyridine-3-carboxamide] the EC30 was “+++ (“+++” means <3 uM)”.
`COc1c(C(C)(C)C)nn(Cc2c(C)cc(C)cc2C)c1C(=O)NS(=O)(=O)c1cccc(N)c1` [Compound 1305, N-(3-aminophenyl)sulfonyl-5-tert-butyl-4-methoxy-2-[(2,4,6-trimethylphenyl)methyl]pyrazole-3-carboxamide] was tested, and the EC30 was “+++ (“+++” means <3 uM)”.
For `Cc1cc(C)c(Cn2nc(C(C)(C)C)cc2C(=O)NS(=O)(=O)c2ccc(N)cc2)c(C)c1` [Compound 1653, N-(4-aminophenyl)sulfonyl-5-tert-butyl-2-[(2,4,6-trimethylphenyl)methyl]pyrazole-3-carboxamide], the EC30 was “+++ (“+++” means <3 uM)”.
`COc1ccc(-c2ccc(C(=O)NS(=O)(=O)c3ccc[nH]c3=O)c(Oc3c(C)cc(C)cc3C)n2)c(F)c1` [Compound 839, 6-(2-fluoro-4-methoxy-phenyl)-N-[(2-oxo-1H-pyridin-3-yl)sulfonyl]-2-(2,4,6-trimethylphenoxy)pyridine-3-carboxamide] was tested, and the EC30 was “++ (“++” means between 3 uM and 10 uM)”.
In the case of `CC(CO)Oc1ccc(-c2ccc(C(=O)NS(=O)(=O)c3cccc(N)n3)c(N3[C@H](C)CC[C@@H]3C)n2)cn1` (stereo partly drawn) [Compound 998, N-[(6-amino-2-pyridyl)sulfonyl]-2-[(2S,5R)-2,5-dimethylpyrrolidin-1-yl]-6-[6-(2-hydroxy-1-methyl-ethoxy)-3-pyridyl]pyridine-3-carboxamide], the EC30 is reported as “++ (“++” means between 3 uM and 10 uM)”.
